Experimental data as given in US7741520B2, “Sulfonanilide analogs as selective aromatase modulators (SAMs)” (The Ohio State University Research Foundation, priority 2006, dated 2010).

How the values were obtained:
[1] = test system: aromatase activity in SK-BR-3 breast cancer cells; assay: Tritiated water-release assay in SK-BR-3 cells (additional compounds); format: cell-based, human; details: for IC50: dose-response (FIG. 13), read-out: IC50 (μM), suppression of aromatase activity in SK-BR-3 breast cancer cells
Procedure: Cell Culture. AR and SK-BR-3 cells were obtained from ATCC (Rockville, Md.). SK-BR-3 cells were maintained in phenol red-free custom media (MEM, Earle's salts, 1.5× amino acids, 2× non-essential amino acids, L-glutamine, 1.5× vitamins, Gibco BRL) supplemented with 10% fetal bovine serum (FBS), 2 mM L-glutamine and 20 mg/L gentamycin. […] Fetal bovine serum was heat inactivated for 30 min in a 56° C. water bath before use. Cell cultures were grown at 37° C., in a humidified atmosphere of 5% CO2 in a Hereaus CO2 incubator. For all experiments, cells were plated in 6 well plates and grown to subconfluency. Before treatment, the media was changed to a defined one containing DMEM/F12 media (Sigma) with 1.0 mg/mL human albumin (OSU Hospital Pharmacy), 5.0 mg/L human transferin and 5.0 mg/L bovine insulin.
Tritiated water-release assay in JAR and SK-BR-3 cell lines. Measurement of aromatase enzyme activity was based on the tritium water release assay. Cells in six well plates were treated with 0.1% DMSO (control), and inhibitors at the indicated concentrations. After 24 hours, the cells were incubated 3 hours (SK-BR-3 cells) or 1 hour (JAR cells) with fresh media along with 100 nM [1β-^3H]-androst-4-ene-3,17-dione (1 μCi). Subsequently, the reaction mixture was removed, and proteins were precipitated using 10% trichloroacetic acid at 42° C. for 20 min. After a brief centrifugation, the media was extracted three times with an equal amount of chloroform to remove remaining substrate and further treated with dextran-treated charcoal. After centrifugation, a 250-μl aliquot containing the product was counted in 5 ml of liquid scintillation mixture. Results were corrected for blanks and for the cell contents of culture flasks, and results were expressed as picomoles of ^3H2O formed per hour incubation time per million live cells (pmol/h/10^6 cells). To determine the amount of cells in each flask, the cells were lysed and analyzed using the diphenylamine DNA assay adapted to a 96-well plate. IC50 sigmoidal dose-response data were analyzed with Microsoft Excel and the Graphpad Prism (Version 3.0) program.
Diphenylamine DNA Assay To determine the amount of viable cells in each flask, the cells were lysed with 0.5N NaOH aqueous solution and analyzed using the diphenylamine DNA assay adapted to a 96-well plate. DNA standards (0-30 μg) were prepared using double-stranded DNA reconstituted in PBS and added in triplicates directly to the wells. A uniform cell suspension was prepared from the 6 well plate in 300 μl 0.5N NaOH aqueous solution, and 60 μl of the unknown samples were added in triplicates to separate wells. […] This solution (60 μl) was added to each well along with 100 μl of a 4% diphenylamine solution in glacial acetic acid. The plates were incubated at 37° C. for 24 hours. After centrifugation, 100 μl supernatant of each well was transferred to a new 96 well plate, and the OD595 was measured using a microplater reader. The DNA concentration was determined by extrapolation to the standard curve and the amount of cells/well was calculated using the equation: 1 cell≈7 pg DNA.

[2] = test system: SK-BR-3 cells; assay: Analysis of apoptosis (single-stranded DNA ELISA) in SK-BR-3 cells; format: cell-based, human; details: 5 μM, 24 hours (FIG. 16)
Procedure: Analysis of apoptosis. Apoptosis was determined by selective denaturation of DNA in apoptotic cells by formamide and detection of denatured DNA with a monoclonal antibody to single-stranded DNA using an ELISA kit (CHEMICON, Temecula, Calif.). Cells were plated in a 96-well flat bottom plate from 0.5×10^4 to 1×10^4 cells/well in custom media. Cells were allowed to adhere to wells overnight. Following incubation, compounds were made up in define media and a 5 μM screen was performed in each cell line with respective compounds in triplicate for 24 hours. Following treatment, the plate was centrifuged at 200×g for 5 min, media was removed followed by the addition of 200 μl of fixative. The plate was incubated for 30 min at 37° C., at which point the fixative was removed and the plate dried for 1-2 hours at room temperature. Fifty microliters of formamide was added to each well following a brief incubation at room temperature for 10 min. The DNA in apoptotic cells was denatured by heating the plate for 10 min, then briefly cooling the plate for 5 min at 4° C. following removal of formamide. The plate was rinsed three times with 200 μl of PBS following one hour incubation at 37° C. with 200 μl of 3% blocking agent. After removal of the blocking agent, 100 μl of antibody mixture were added to each well for 30 min at room temperature. The plate was washed three times with 1× wash buffer using 250 μl of wash buffer/well followed by the addition of 200 μl of ABTS solution added to each well for a 15-60 minute incubation. The reaction was stopped by the addition of 100 μl of a stop solution added to each well and absorbance was measured at 405 nm on a SpectroMax 340 UV PlateReader.

Compound	IC50 [1]	apoptotic effects [2]	increase in activity compared with nimesulide ([1]; from IC50 values)
CN(c1ccc([N+](=O)[O-])cc1OCc1ccc2ccccc2c1)S(C)(=O)=O [Compound 28c, N-methyl-N-[2-(β-naphthylmethoxy) 4-nitrophenyl]methanesulfonamide]	2.68 ± 0.91 µM	do not produce apoptotic effects	
CN(c1ccc([N+](=O)[O-])cc1OCc1ccc(F)cc1)S(C)(=O)=O [Compound 33c, N-methyl-N-[2-(4′-fluorobenzyloxy)-4-nitrophenyl]methanesulfonamide]	1.78 ± 0.63 µM	do not produce apoptotic effects	
CN(c1ccc([N+](=O)[O-])cc1OCc1ccccc1-c1ccccc1)S(C)(=O)=O [Compound 29c, N-methyl-N-[2-(2′-phenylbenzyloxy)-4-nitrophenyl]methanesulfonamide]	0.33 ± 0.15 µM	do not produce apoptotic effects	eighty fold increase
CN(c1ccc([N+](=O)[O-])cc1OCc1ccccc1)S(C)(=O)=O [Compound 26f, N-methyl-N-(2-benzyloxy-4-nitrophenyl) methanesulfonamide]	0.81 ± 0.29 µM	do not produce apoptotic effects	
CN(c1ccc([N+](=O)[O-])cc1OCc1ccc([N+](=O)[O-])cc1)S(C)(=O)=O [Compound 27c, N-methyl-N-[2-(4′-nitrobenzyloxy)-4-nitrophenyl]methanesulfonamide]	0.49 ± 0.14 µM	do not produce apoptotic effects	
Cc1ccc(COc2cc([N+](=O)[O-])ccc2N(C)S(C)(=O)=O)cc1 [Compound 30c, N-methyl-N-[2-(4′-methylbenzyloxy)-4-nitrophenyl]methanesulfonamide]	2.33 ± 0.66 µM	do not produce apoptotic effects	
